{"source": "paper PMC12363935", "about": "“Unc-51 Like Kinase 3 (ULK3) is essential for autophagy and cell survival in multiple myeloma” (Research Square, 2025)", "molecular_target": "T1, ULK1 (Homo sapiens, UniProt O75385)", "T1 construct": "purchased Reaction Biology Corporation", "T1 sequence (O75385 1-1050)": "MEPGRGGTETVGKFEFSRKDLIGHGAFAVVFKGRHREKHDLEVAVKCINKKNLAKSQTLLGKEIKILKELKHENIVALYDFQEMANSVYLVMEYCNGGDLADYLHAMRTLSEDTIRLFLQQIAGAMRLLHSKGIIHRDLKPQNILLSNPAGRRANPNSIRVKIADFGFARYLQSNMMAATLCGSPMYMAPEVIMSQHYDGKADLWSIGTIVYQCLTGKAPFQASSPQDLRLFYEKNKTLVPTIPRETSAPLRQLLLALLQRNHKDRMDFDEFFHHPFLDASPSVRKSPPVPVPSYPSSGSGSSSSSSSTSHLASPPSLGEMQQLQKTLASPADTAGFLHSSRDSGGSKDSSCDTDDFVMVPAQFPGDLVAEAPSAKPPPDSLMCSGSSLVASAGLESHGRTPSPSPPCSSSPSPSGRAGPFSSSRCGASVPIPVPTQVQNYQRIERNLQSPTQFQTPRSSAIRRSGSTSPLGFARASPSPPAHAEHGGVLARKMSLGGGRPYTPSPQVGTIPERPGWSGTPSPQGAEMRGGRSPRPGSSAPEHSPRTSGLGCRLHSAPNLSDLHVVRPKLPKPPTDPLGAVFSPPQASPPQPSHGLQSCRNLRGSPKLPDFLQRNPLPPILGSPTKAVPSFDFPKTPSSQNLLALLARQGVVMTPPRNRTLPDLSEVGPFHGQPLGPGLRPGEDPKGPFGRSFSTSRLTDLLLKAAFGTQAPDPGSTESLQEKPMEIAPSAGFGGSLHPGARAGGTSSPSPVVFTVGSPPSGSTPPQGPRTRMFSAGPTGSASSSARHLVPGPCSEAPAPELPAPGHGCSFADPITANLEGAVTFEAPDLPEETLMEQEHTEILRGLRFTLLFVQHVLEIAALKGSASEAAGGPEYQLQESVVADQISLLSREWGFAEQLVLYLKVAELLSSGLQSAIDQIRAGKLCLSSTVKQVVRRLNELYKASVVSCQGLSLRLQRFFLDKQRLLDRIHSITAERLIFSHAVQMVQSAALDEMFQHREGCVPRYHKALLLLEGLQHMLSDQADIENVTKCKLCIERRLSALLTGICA", "experiment": "Kinase profiling assay (Reaction Biology), 10-dose IC50, 10 μM ATP", "type": "biochemical", "protocol": "310 and refinement were performed with COOT [14] and Phenix.Refine to obtain a clear electron\n311 density map (1Fo-Fc) for compound MA9-060, which was built into the structure near the end of\n312 iterative cycles of model building and refinement. Crystal parameters, data collection statistics and\n313 refinement statistics are summarized in Supplementary Fig. 4D and deposited in the protein\n314 databank with PDB code 8V1M.\n317 The compounds under investigation were tested by Reaction Biology Corporation against four\n318 specific kinases in this study (JAK2, ULK1, ULK2, ULK3). Each compound was provided as a\n319 10 mM stock solution. To facilitate dissolution, the compounds were subjected to gentle heating.\n320 Subsequent testing involved the evaluation of the compounds using a 10-dose IC50 mode,\nAdditionally, the control compound,\nThroughout these experiments, reactions were conducted using a standardized concentration\n325 The data collected during these assays encompass raw data, % enzyme activity (relative to DMSO\n327 activities at the highest concentration of compounds were less than 65%. The IC50 summary,\n328 detailing the inhibitory concentrations of the compounds against the respective kinases, is\n331 Bromodomain profiling assay\n333 evaluated against Bromodomain 1 by Reaction Biology Corporation.\n334 The compounds were subjected to testing using a 10-dose IC50 singlet approach, involving a 3-\n335 fold serial dilution starting at 10 μM, specifically against BRD4-1. Additionally, as a benchmark,\n337 dilution starting at 10 μM.\n338 For ligand and detection purposes, the H4/4Ac ligand, representing the Histone H4 peptide (1-21)\n339 with acetylation at lysine residues K5, K8, K12, and K16, and tagged with Biotin, was utilized.", "data": [{"smiles": "Cc1cnc(Nc2ccc(C3CCN(C)CC3)c(F)c2)nc1Nc1ccc(Cl)c(NS(=O)(=O)C(C)(C)C)c1", "note": "[MA9060]", "values": [{"measurement": "IC50", "value": 1710, "unit": "nM"}]}]}
